Experimental findings from the PolyMetriX glass transition set are described below.

Regarding `*=Cc1ccc(/C=N/c2c(-c3ccccc3)cc(-c3ccc(-c4cc(-c5ccccc5)c(N=*)c(-c5ccccc5)c4)cc3)cc2-c2ccccc2)cc1` (repeat unit), the glass transition temperature was determined as 300.00 °C.

As to `*C(=O)N1C(=O)N(C(=O)c2ccc3c(c2)C(=O)N(c2ccc(Oc4ccc(N5C(=O)c6ccc(*)cc6C5=O)cc4)cc2)C3=O)C(CC)(CC)C1=O` (repeat unit), the glass transition temperature is 160.00 °C.

In turn, `*C(=O)Nc1ccc(Cc2ccc(NC(=O)c3ccc4c(c3)C(=O)N(c3ccc(/N=N/c5ccc(C)cc5)c(N5C(=O)c6ccc(*)cc6C5=O)c3)C4=O)c(C)c2)cc1C` (repeat unit) showed a glass transition temperature of 257.00 °C.

In turn, `*C(=O)Nc1ccc(Oc2ccc(C3(c4ccc(Oc5ccc(NC(=O)c6ccc7c(c6)C(=O)N(c6ccc(C)c(N8C(=O)c9ccc(*)cc9C8=O)c6)C7=O)cc5)cc4)NC(=O)c4ccccc43)cc2)cc1` (repeat unit) yielded a glass transition temperature of 315.00 °C.

Regarding `*C(=O)Oc1ccc(C2(c3ccc(OC(=O)c4ccc5c(c4)C(=O)N(c4ccc(-c6ccc(N7C(=O)c8ccc(*)cc8C7=O)cc6C)c(C)c4)C5=O)cc3)CC3CC2C2CCCC32)cc1` (repeat unit), the glass transition temperature was found to be 226.00 °C.

For `*C(=O)c1cc2c(cc1Cl)C(=O)N(c1cc(N3C(=O)c4cc(*)c(Cl)cc4C3=O)cc(C(C)(C)C)c1)C2=O` (repeat unit), the glass transition temperature was 290.00 °C.

`*C(=O)c1ccc(-c2ccc(C(C)(C)c3ccc(-c4ccc(C(=O)c5ccc6c(c5)C(=O)N(c5ccc(Cc7ccc(N8C(=O)c9ccc(*)cc9C8=O)cc7)cc5)C6=O)cc4)cc3)cc2)cc1` (repeat unit) yielded a glass transition temperature of 216.00 °C.

`*C(=O)c1ccc2c(c1)C(=O)N(c1cc(N3C(=O)c4ccc(*)cc4C3=O)c(C)cc1C)C2=O` (repeat unit): the glass transition temperature worked out at 305.00 °C.

`*C(=O)c1ccc2c(c1)C(=O)N(c1cc(OCCCC)cc(N3C(=O)c4ccc(*)cc4C3=O)c1)C2=O` (repeat unit) registered a glass transition temperature of 244.00 °C.

In turn, `*C(=O)c1ccc2c(c1)C(=O)N(c1cc(OCCCCCCCCCCCCCCCC)cc(N3C(=O)c4ccc(*)cc4C3=O)c1)C2=O` (repeat unit) had a glass transition temperature of 179.00 °C.

The compound `*C(=O)c1ccc2c(c1)C(=O)N(c1ccc(OCCOc3ccc(N4C(=O)c5ccc(*)cc5C4=O)cc3)cc1)C2=O` (repeat unit) yielded a glass transition temperature of 246.00 °C.

On to `*C(=O)c1ccc2c(c1)C(=O)N(c1ccc(Oc3ccc(C(=O)c4cccc(C(=O)c5ccc(Oc6ccc(N7C(=O)c8ccc(*)cc8C7=O)cc6C(F)(F)F)cc5)n4)cc3)c(C(F)(F)F)c1)C2=O` (repeat unit), for which the glass transition temperature worked out at 225.20 °C.

On to `*CC(O)COc1c(Cl)cc(C(C)(C)c2cc(Cl)c(O*)c(Cl)c2)cc1Cl` (repeat unit), for which the glass transition temperature turned out to be 135.00 °C.

On to `*Oc1c(Cl)cc(C(C)(C)c2cc(Cl)c(OC(*)=O)c(Cl)c2)cc1Cl` (repeat unit), for which the glass transition temperature was 227.00 °C.

In the case of `*Oc1c(OC)cc(-c2cc(OC)c(OC(=O)CCCCCCCCC(*)=O)c(OC)c2)cc1OC` (repeat unit), the glass transition temperature amounted to 94.00 °C.

On to `*Oc1c(OC)cc(-c2cc(OC)c(OC(=O)c3cccc(C(*)=O)c3)c(OC)c2)cc1OC` (repeat unit), for which the glass transition temperature was found to be 252.00 °C.

Turning to `*Oc1ccc(-c2ccc(Oc3ccc(-c4ccc(-c5ccc(*)c(C(F)(F)F)c5)cc4)cc3C(F)(F)F)cc2)cc1` (repeat unit), the glass transition temperature was determined as 203.50 °C.

For `*c1cc(OCCCC)c(*)cc1OCCCC` (repeat unit), the glass transition temperature was determined as 37.00 °C.

`*c1cc(OCCCCCCCCCCCC)cc(N2C(=O)c3ccc(Oc4ccc5c(c4)C(=O)N(*)C5=O)cc3C2=O)c1` (repeat unit) gave a glass transition temperature of 162.00 °C.

As for `*c1cc(OCCCCCCCCCCCCCCCC)cc(N2C(=O)c3ccc(Oc4ccc5c(c4)C(=O)N(*)C5=O)cc3C2=O)c1` (repeat unit), the glass transition temperature was found to be 159.00 °C.

On to `*c1ccc(-c2c(-c3ccc(-c4ccccc4)cc3)cc(-c3ccc(OCCCCCCCCCCOc4ccc(-c5cc(-c6ccc(-c7ccccc7)cc6)c(-c6ccc(-n7c(=O)c8cc9c(=O)n(*)c(=O)c9cc8c7=O)cc6)c(-c6ccc(-c7ccccc7)cc6)c5)cc4)cc3)cc2-c2ccc(-c3ccccc3)cc2)cc1` (repeat unit), for which the glass transition temperature was 121.00 °C.

`*c1ccc(-c2c(-c3ccccc3)nc3ccc(-c4ccc5nc(-c6ccccc6)c(*)c(-c6ccccc6)c5c4)cc3c2-c2ccccc2)cc1` (repeat unit) yielded a glass transition temperature of 370.00 °C.

Compound `*c1ccc(-c2c(-c3ccccc3)nc3ccc(Oc4ccc5nc(-c6ccccc6)c(*)c(-c6ccccc6)c5c4)cc3c2-c2ccccc2)cc1` (repeat unit) returned a glass transition temperature of 311.00 °C.

The compound `*c1ccc(-c2cc(CCCCCCBr)c(*)s2)s1` (repeat unit) registered a glass transition temperature of 51.00 °C.

On to `*c1ccc(-c2cc(CCCCCCCC)c(-c3ccc(-c4ccc(-c5sc(-c6ccc([Si](C)(C)[Si](*)(C)C)s6)cc5CCCCCCCC)s4)s3)s2)s1` (repeat unit), for which the glass transition temperature turned out to be 12.00 °C.

`*c1ccc(-c2cc(CCCCCCCC)c(-c3ccc(-c4ccc(-c5sc(-c6ccc([Si](C)(C)[Si](C)(C)[Si](C)(C)[Si](*)(C)C)s6)cc5CCCCCCCC)s4)s3)s2)s1` (repeat unit) displayed a glass transition temperature of 6.00 °C.

Take `*c1ccc(-c2cc(CCCCCCCC)c(-c3ccc(-c4ccc(-c5sc(-c6ccc([Si](C)(C)[Si](C)(C)[Si](C)(C)[Si](C)(C)[Si](C)(C)[Si](C)(C)[Si](C)(C)[Si](*)(C)C)s6)cc5CCCCCCCC)s4)s3)s2)s1` (repeat unit): the glass transition temperature amounted to 13.00 °C.

Take `*c1ccc(-c2ccc(-c3cc(-c4ccc(Oc5ccc(-c6cc(*)nc7ccccc67)cc5)cc4)c4ccccc4n3)cc2)cc1` (repeat unit): the glass transition temperature is 326.00 °C.

Regarding `*c1ccc(-c2ccc(-c3cc(-c4ccccc4)c4cc(-c5ccc6nc(*)cc(-c7ccccc7)c6c5)ccc4n3)cc2)cc1` (repeat unit), the glass transition temperature was 360.00 °C.

As for `*c1ccc(-c2ccc(-c3cc(-c4ccccc4)c4cc5c(-c6ccccc6)cc(*)nc5cc4n3)cc2)cc1` (repeat unit), the glass transition temperature was found to be 392.00 °C.

The compound `*c1ccc(-c2ccc(-c3ccc(-c4ccc(*)n4CCCCCCCCCCCC)s3)s2)s1` (repeat unit) displayed a glass transition temperature of 52.00 °C.

Turning to `*c1ccc(-c2ccc(-c3ccc(-c4ccc(-c5ccc(*)n5CCCCCCCCCCCC)s4)s3)s2)s1` (repeat unit), the glass transition temperature amounted to 54.00 °C.

Consider `*c1ccc(-c2ccc(-c3ccc(-c4ccc(N(*)c5ccc(C)cc5)cc4)c4c(C)ccc(C)c34)c3c(C)ccc(C)c23)cc1` (repeat unit), for which the glass transition temperature stood at 148.00 °C.

Turning to `*c1ccc(-c2ccc(-c3ccc(-c4ccc([Si](*)(CCCC)CCCC)s4)s3)s2)s1` (repeat unit), the glass transition temperature is 1.00 °C.

Regarding `*c1ccc(-c2ccc(-c3ccc(-c4ccc([Si](CCCC)(CCCC)[Si](*)(CCCC)CCCC)s4)s3)s2)s1` (repeat unit), the glass transition temperature was -1.00 °C.

Regarding `*c1ccc(-c2ccc(-c3ccc(-c4cnc5ccc(-c6ccc7ncc(*)nc7c6)cc5n4)cc3)cc2)cc1` (repeat unit), the glass transition temperature was 305.00 °C.

For `*c1ccc(-c2ccc(-c3ccc(-n4c(=O)c5c(C(F)(F)F)c6c(=O)n(*)c(=O)c6c(C(F)(F)F)c5c4=O)cc3)cc2)cc1` (repeat unit), the glass transition temperature amounted to 364.00 °C.

The compound `*c1ccc(-c2ccc(-c3nc4ccc(-c5ccc6nc(*)c(-c7ccccc7)c(-c7ccccc7)c6c5)cc4c(-c4ccccc4)c3-c3ccccc3)cc2)cc1` (repeat unit) gave a glass transition temperature of 420.00 °C.

Compound `*c1ccc(-c2ccc(-n3c(=O)c4cc5c(=O)n(*)c(=O)c5cc4c3=O)cc2OC)c(OC)c1` (repeat unit) displayed a glass transition temperature of 328.00 °C.

In the case of `*c1ccc(-c2ccc(C(*)(C(F)(F)F)C(F)(F)F)cc2)cc1` (repeat unit), the glass transition temperature amounted to 264.00 °C.

In the case of `*c1ccc(-c2ccc(C3(*)CCCCC3)cc2)cc1` (repeat unit), the glass transition temperature was 287.00 °C.

The compound `*c1ccc(-c2ccc(C3(*)c4ccccc4-c4ccccc43)cc2)cc1` (repeat unit) had a glass transition temperature of 297.00 °C.

The compound `*c1ccc(-c2ccc(N(*)c3cc(C(F)(F)F)cc(C(F)(F)F)c3)cc2)cc1` (repeat unit) came in with a glass transition temperature of 209.00 °C.

`*c1ccc(-c2ccc(N3C(=O)c4c(c(-c5ccccc5)c(-c5ccc(Oc6ccc(-c7c(-c8ccccc8)c8c(c(-c9ccccc9)c7-c7ccccc7)C(=O)N(*)C8=O)cc6)cc5)c(-c5ccccc5)c4-c4ccccc4)C3=O)cc2)cc1` (repeat unit) yielded a glass transition temperature of 399.00 °C.

`*c1ccc(-c2ccc(N3C(=O)c4ccc(-c5cccc6c5C(=O)N(*)C6=O)cc4C3=O)cc2C)c(C)c1` (repeat unit): the glass transition temperature amounted to 372.00 °C.

Compound `*c1ccc(-c2ccc([Si](C)(C)[Si](*)(C)C)s2)s1` (repeat unit) had a glass transition temperature of 45.00 °C.

In turn, `*c1ccc(C2(c3ccc(-c4cc(-c5ccccc5)c5cc(C6(c7ccc8nc(*)cc(-c9ccccc9)c8c7)c7ccccc7C(=O)c7ccccc76)ccc5n4)cc3)c3ccccc3C(=O)c3ccccc32)cc1` (repeat unit) gave a glass transition temperature of 390.00 °C.

On to `*c1ccc(Cc2ccc(N3C(=O)c4cc(-c5ccc(C(C)(C)C)cc5)c(-c5cc6c(cc5-c5ccc(C(C)(C)C)cc5)C(=O)N(*)C6=O)cc4C3=O)cc2)cc1` (repeat unit), for which the glass transition temperature is 360.00 °C.

Consider `*c1ccc(Cc2ccc(N3C(=O)c4cc(-c5ccc([Si](C)(C)C)cc5)c(-c5cc6c(cc5-c5ccc([Si](C)(C)C)cc5)C(=O)N(*)C6=O)cc4C3=O)cc2)cc1` (repeat unit), for which the glass transition temperature worked out at 348.00 °C.

Take `*c1ccc(Oc2ccc(N3C(=O)c4cc(-c5ccc(C(C)(C)C)cc5)c(-c5cc6c(cc5-c5ccc(C(C)(C)C)cc5)C(=O)N(*)C6=O)cc4C3=O)cc2)cc1` (repeat unit): the glass transition temperature was found to be 370.00 °C.

As for `*c1ccc2c(c1)C(=O)N(c1cc(OCCCCCCCCCCCC)cc(N3C(=O)c4ccc(C(*)(C(F)(F)F)C(F)(F)F)cc4C3=O)c1)C2=O` (repeat unit), the glass transition temperature worked out at 165.00 °C.
